Article PMC12454493, “Insight on novel sulfamoylphenyl pyrazole derivatives as anticancer carbonic anhydrase inhibitors” (Molecular Diversity, 2024)
Several values for one entry are separate records, joined by “and”; a condition that tells them apart may be missing. Identical values can stand only once.

Key:
CCRF-CEM = experiment: NCI-60 one-dose SRB screen (Leukemia); assay type: cell-based; conditions: Homo sapiens, single dose 10 µM, 48 h, read-out: Growth inhibition percent (GI %)
HL-60(TB) = experiment: NCI-60 one-dose SRB screen (Leukemia); assay type: cell-based; conditions: Homo sapiens, single dose 10 µM, 48 h, read-out: Growth inhibition percent (GI %)
K-562 = experiment: NCI-60 one-dose SRB screen (Leukemia); assay type: cell-based; conditions: Homo sapiens, K562, single dose 10 µM, 48 h, read-out: Growth inhibition percent (GI %)
MOLT-4 = experiment: NCI-60 one-dose SRB screen (Leukemia); assay type: cell-based; conditions: Homo sapiens, single dose 10 µM, 48 h, read-out: Growth inhibition percent (GI %)
RPMI-8226 = experiment: NCI-60 one-dose SRB screen (Leukemia); assay type: cell-based; conditions: Homo sapiens, single dose 10 µM, 48 h, read-out: Growth inhibition percent (GI %)
SR = experiment: NCI-60 one-dose SRB screen (Leukemia); assay type: cell-based; conditions: Homo sapiens, single dose 10 µM, 48 h, read-out: Growth inhibition percent (GI %)
A549/ATCC = experiment: NCI-60 one-dose SRB screen (Non-Small Cell Lung Cancer); assay type: cell-based; conditions: Homo sapiens, single dose 10 µM, 48 h, read-out: Growth inhibition percent (GI %)
EKVX = experiment: as above; assay type: cell-based; conditions: Homo sapiens, single dose 10 µM, 48 h, read-out: Growth inhibition percent (GI %)
HOP-62 = experiment: as above; assay type: cell-based; conditions: Homo sapiens, single dose 10 µM, 48 h, read-out: Growth inhibition percent (GI %)
HOP-92 = experiment: as above; assay type: cell-based; conditions: Homo sapiens, single dose 10 µM, 48 h, read-out: Growth inhibition percent (GI %)
NCI-H226 = experiment: as above; assay type: cell-based; conditions: Homo sapiens, single dose 10 µM, 48 h, read-out: Growth inhibition percent (GI %)
NCI-H23 = experiment: as above; assay type: cell-based; conditions: Homo sapiens, single dose 10 µM, 48 h, read-out: Growth inhibition percent (GI %)
NCI-H322M = experiment: as above; assay type: cell-based; conditions: Homo sapiens, single dose 10 µM, 48 h, read-out: Growth inhibition percent (GI %)
NCI-H460 = experiment: as above; assay type: cell-based; conditions: Homo sapiens, single dose 10 µM, 48 h, read-out: Growth inhibition percent (GI %)
NCI-H522 = experiment: as above; assay type: cell-based; conditions: Homo sapiens, single dose 10 µM, 48 h, read-out: Growth inhibition percent (GI %)
COLO 205 = experiment: NCI-60 one-dose SRB screen (Colon Cancer); assay type: cell-based; conditions: Homo sapiens, single dose 10 µM, 48 h, read-out: Growth inhibition percent (GI %)
HCC-2998 = experiment: NCI-60 one-dose SRB screen (Colon Cancer); assay type: cell-based; conditions: Homo sapiens, single dose 10 µM, 48 h, read-out: Growth inhibition percent (GI %)
HCT-116 = experiment: NCI-60 one-dose SRB screen (Colon Cancer); assay type: cell-based; conditions: Homo sapiens, single dose 10 µM, 48 h, read-out: Growth inhibition percent (GI %)
HCT-15 = experiment: NCI-60 one-dose SRB screen (Colon Cancer); assay type: cell-based; conditions: Homo sapiens, single dose 10 µM, 48 h, read-out: Growth inhibition percent (GI %)
HT29 = experiment: NCI-60 one-dose SRB screen (Colon Cancer); assay type: cell-based; conditions: Homo sapiens, HT-29, single dose 10 µM, 48 h, read-out: Growth inhibition percent (GI %)
KM12 = experiment: NCI-60 one-dose SRB screen (Colon Cancer); assay type: cell-based; conditions: Homo sapiens, single dose 10 µM, 48 h, read-out: Growth inhibition percent (GI %)
SW-620 = experiment: NCI-60 one-dose SRB screen (Colon Cancer); assay type: cell-based; conditions: Homo sapiens, single dose 10 µM, 48 h, read-out: Growth inhibition percent (GI %)
LOX IMVI = experiment: NCI-60 one-dose SRB screen (Melanoma); assay type: cell-based; conditions: Homo sapiens, single dose 10 µM, 48 h, read-out: Growth inhibition percent (GI %)
M14 = experiment: NCI-60 one-dose SRB screen (Melanoma); assay type: cell-based; conditions: Homo sapiens, single dose 10 µM, 48 h, read-out: Growth inhibition percent (GI %)
MALME-3M = experiment: NCI-60 one-dose SRB screen (Melanoma); assay type: cell-based; conditions: Homo sapiens, single dose 10 µM, 48 h, read-out: Growth inhibition percent (GI %)
MDA-MB-435 = experiment: NCI-60 one-dose SRB screen (Melanoma); assay type: cell-based; conditions: Homo sapiens, single dose 10 µM, 48 h, read-out: Growth inhibition percent (GI %)
SK-MEL-28 = experiment: NCI-60 one-dose SRB screen (Melanoma); assay type: cell-based; conditions: Homo sapiens, single dose 10 µM, 48 h, read-out: Growth inhibition percent (GI %)
SK-MEL-2 = experiment: NCI-60 one-dose SRB screen (Melanoma); assay type: cell-based; conditions: Homo sapiens, single dose 10 µM, 48 h, read-out: Growth inhibition percent (GI %)
SK-MEL-5 = experiment: NCI-60 one-dose SRB screen (Melanoma); assay type: cell-based; conditions: Homo sapiens, single dose 10 µM, 48 h, read-out: Growth inhibition percent (GI %)
UACC-257 = experiment: NCI-60 one-dose SRB screen (Melanoma); assay type: cell-based; conditions: Homo sapiens, single dose 10 µM, 48 h, read-out: Growth inhibition percent (GI %)
UACC-62 = experiment: NCI-60 one-dose SRB screen (Melanoma); assay type: cell-based; conditions: Homo sapiens, single dose 10 µM, 48 h, read-out: Growth inhibition percent (GI %)
IGROV1 = experiment: NCI-60 one-dose SRB screen (Ovarian cancer); assay type: cell-based; conditions: Homo sapiens, IGROV-1, single dose 10 µM, 48 h, read-out: Growth inhibition percent (GI %)
NCI/ADR-RES = experiment: NCI-60 one-dose SRB screen (Ovarian cancer); assay type: cell-based; conditions: Homo sapiens, single dose 10 µM, 48 h, read-out: Growth inhibition percent (GI %)
OVCAR-3 = experiment: NCI-60 one-dose SRB screen (Ovarian cancer); assay type: cell-based; conditions: Homo sapiens, single dose 10 µM, 48 h, read-out: Growth inhibition percent (GI %)
OVCAR-4 = experiment: NCI-60 one-dose SRB screen (Ovarian cancer); assay type: cell-based; conditions: Homo sapiens, single dose 10 µM, 48 h, read-out: Growth inhibition percent (GI %)
OVCAR-5 = experiment: NCI-60 one-dose SRB screen (Ovarian cancer); assay type: cell-based; conditions: Homo sapiens, single dose 10 µM, 48 h, read-out: Growth inhibition percent (GI %)
OVCAR-8 = experiment: NCI-60 one-dose SRB screen (Ovarian cancer); assay type: cell-based; conditions: Homo sapiens, single dose 10 µM, 48 h, read-out: Growth inhibition percent (GI %)
SK-OV-3 = experiment: NCI-60 one-dose SRB screen (Ovarian cancer); assay type: cell-based; conditions: Homo sapiens, single dose 10 µM, 48 h, read-out: Growth inhibition percent (GI %)
DU-145 = experiment: NCI-60 one-dose SRB screen (Prostate Cancer); assay type: cell-based; conditions: Homo sapiens, single dose 10 µM, 48 h, read-out: Growth inhibition percent (GI %)
PC-3 = experiment: NCI-60 one-dose SRB screen (Prostate Cancer); assay type: cell-based; conditions: Homo sapiens, single dose 10 µM, 48 h, read-out: Growth inhibition percent (GI %)
HS 578T = experiment: NCI-60 one-dose SRB screen (Breast Cancer); assay type: cell-based; conditions: Homo sapiens, single dose 10 µM, 48 h, read-out: Growth inhibition percent (GI %)
MCF-7 = experiment: NCI-60 one-dose SRB screen (Breast Cancer); assay type: cell-based; conditions: Homo sapiens, MCF7, single dose 10 µM, 48 h, read-out: Growth inhibition percent (GI %)
MDA-MB-231/ATCC = experiment: NCI-60 one-dose SRB screen (Breast Cancer); assay type: cell-based; conditions: Homo sapiens, single dose 10 µM, 48 h, read-out: Growth inhibition percent (GI %)
T-47D = experiment: NCI-60 one-dose SRB screen (Breast Cancer); assay type: cell-based; conditions: Homo sapiens, T47D, single dose 10 µM, 48 h, read-out: Growth inhibition percent (GI %)
hCA IX = hCA IX (Homo sapiens, UniProt Q16790); experiment: CA inhibitory activity, spectrophotometric p-NPA assay; assay type: biochemical; conditions: for IC50: p-NPA substrate, pH 7.5, 25 °C, triplicate, read-out: IC50 (µM) ± SD hCA IX

SMILES: COc1ccc(-c2nn(-c3ccc(S(N)(=O)=O)cc3)cc2C(=O)OCC(=O)Nc2nnc(S(N)(=O)=O)s2)cc1 [Compound 6c, 2-Oxo-2-[(5-sulfamoyl-1,3,4-thiadiazol-2-yl)amino] ethyl 3-(4-methoxyphenyl)-1-(4-sulfamoylphenyl)-1H-pyrazole-4-carboxylate]
- inhibition at 10 µM (CCRF-CEM): < 5%
- inhibition at 10 µM (HL-60(TB)): < 5%
- inhibition at 10 µM (K-562): < 5%
- inhibition at 10 µM (MOLT-4): < 5%
- inhibition at 10 µM (RPMI-8226): < 5%
- inhibition at 10 µM (SR): < 5%
- inhibition at 10 µM (A549/ATCC): < 5%
- inhibition at 10 µM (EKVX): 11.2%
- inhibition at 10 µM (HOP-62): < 5%
- inhibition at 10 µM (HOP-92): 27.4%
- inhibition at 10 µM (NCI-H226): 8.69%
- inhibition at 10 µM (NCI-H23): < 5%
- inhibition at 10 µM (NCI-H322M): < 5%
- inhibition at 10 µM (NCI-H460): < 5%
- inhibition at 10 µM (NCI-H522): 5.91%
- inhibition at 10 µM (COLO 205): < 5%
- inhibition at 10 µM (HCC-2998): < 5%
- inhibition at 10 µM (HCT-116): < 5%
- inhibition at 10 µM (HCT-15): < 5%
- inhibition at 10 µM (HT29): < 5%
- inhibition at 10 µM (KM12): < 5%
- inhibition at 10 µM (SW-620): < 5%
- inhibition at 10 µM (LOX IMVI): 8.56%
- inhibition at 10 µM (M14): < 5%
- inhibition at 10 µM (MALME-3M): 5.67%
- inhibition at 10 µM (MDA-MB-435): < 5%
- inhibition at 10 µM (SK-MEL-28): < 5%
- inhibition at 10 µM (SK-MEL-2): < 5%
- inhibition at 10 µM (SK-MEL-5): < 5%
- inhibition at 10 µM (UACC-257): < 5%
- inhibition at 10 µM (UACC-62): 9.09%
- inhibition at 10 µM (IGROV1): < 5%
- inhibition at 10 µM (NCI/ADR-RES): < 5%
- inhibition at 10 µM (OVCAR-3): < 5%
- inhibition at 10 µM (OVCAR-4): < 5%
- inhibition at 10 µM (OVCAR-5): < 5%
- inhibition at 10 µM (OVCAR-8): < 5%
- inhibition at 10 µM (SK-OV-3): < 5%
- inhibition at 10 µM (DU-145): < 5%
- inhibition at 10 µM (PC-3): < 5%
- inhibition at 10 µM (HS 578T): 12.8%
- inhibition at 10 µM (MCF-7): 15.8%
- inhibition at 10 µM (MDA-MB-231/ATCC): < 5%
- inhibition at 10 µM (T-47D): < 5%
- Ki (hCA IX): 0.073 µM
- IC50 (hCA IX): 0.07 µM and 0.073 µM
- melting point: 240 to 241 °C

SMILES: NC(=S)NNC(=O)c1cn(-c2ccc(S(N)(=O)=O)cc2)nc1-c1ccccc1 [Compound 9a, 2-[3-Phenyl-1-(4-sulfamoylphenyl)-1H-pyrazole-4-carbonyl] hydrazine-1-carbothioamide]
- inhibition at 10 µM (CCRF-CEM): < 5%
- inhibition at 10 µM (HL-60(TB)): < 5%
- inhibition at 10 µM (K-562): < 5%
- inhibition at 10 µM (MOLT-4): < 5%
- inhibition at 10 µM (RPMI-8226): < 5%
- inhibition at 10 µM (SR): < 5%
- inhibition at 10 µM (A549/ATCC): 10.9%
- inhibition at 10 µM (EKVX): < 5%
- inhibition at 10 µM (HOP-62): 8.3%
- inhibition at 10 µM (HOP-92): < 5%
- inhibition at 10 µM (NCI-H226): < 5%
- inhibition at 10 µM (NCI-H23): < 5%
- inhibition at 10 µM (NCI-H322M): < 5%
- inhibition at 10 µM (NCI-H460): < 5%
- inhibition at 10 µM (NCI-H522): 23.9%
- inhibition at 10 µM (COLO 205): < 5%
- inhibition at 10 µM (HCC-2998): < 5%
- inhibition at 10 µM (HCT-116): < 5%
- inhibition at 10 µM (HCT-15): < 5%
- inhibition at 10 µM (HT29): 10.8%
- inhibition at 10 µM (KM12): < 5%
- inhibition at 10 µM (SW-620): < 5%
- inhibition at 10 µM (LOX IMVI): < 5%
- inhibition at 10 µM (M14): < 5%
- inhibition at 10 µM (MALME-3M): < 5%
- inhibition at 10 µM (MDA-MB-435): < 5%
- inhibition at 10 µM (SK-MEL-28): < 5%
- inhibition at 10 µM (SK-MEL-2): < 5%
- inhibition at 10 µM (SK-MEL-5): < 5%
- inhibition at 10 µM (UACC-257): < 5%
- inhibition at 10 µM (UACC-62): 8.26%
- inhibition at 10 µM (IGROV1): < 5%
- inhibition at 10 µM (NCI/ADR-RES): < 5%
- inhibition at 10 µM (OVCAR-3): < 5%
- inhibition at 10 µM (OVCAR-4): < 5%
- inhibition at 10 µM (OVCAR-5): < 5%
- inhibition at 10 µM (OVCAR-8): < 5%
- inhibition at 10 µM (SK-OV-3): < 5%
- inhibition at 10 µM (DU-145): < 5%
- inhibition at 10 µM (PC-3): < 5%
- inhibition at 10 µM (HS 578T): < 5%
- inhibition at 10 µM (MCF-7): < 5%
- inhibition at 10 µM (MDA-MB-231/ATCC): < 5%
- inhibition at 10 µM (T-47D): < 5%
- IC50 (hCA IX): 0.21 µM and 0.215 µM
- melting point: 180 to 181 °C
